US6025330A, “Inhibitors of fibrin cross-linking and/or transglutaminases” (BioPharm Research & Development Ltd., priority 1995, dated 2000)
No end group written: not given here.

Columns and labels:
thrombin = thrombin chromogenic substrate assay (S2238); type: biochemical; settings: 0.046 μg/ml
Description: (§1) The effect of Tridegin variant 1 purified as in Example 6 was tested on the coagulation enzyme, thrombin. with a chromogenic substrate assay. 1 mM S2238 was incubated in 50 mM Tris HCl pH 8.3 and the reaction was started by adding thrombin 0.15 U/ml final concentration. The reaction was monitored in a spectrophotometer at 405 nm.

human factor Xa = human factor Xa (Homo sapiens, UniProt P00742); experiment: factor Xa chromogenic substrate assay (S2765); type: biochemical; settings: 0.046 μg/ml
Chain of human factor Xa (P00742 41-179 limits assumed): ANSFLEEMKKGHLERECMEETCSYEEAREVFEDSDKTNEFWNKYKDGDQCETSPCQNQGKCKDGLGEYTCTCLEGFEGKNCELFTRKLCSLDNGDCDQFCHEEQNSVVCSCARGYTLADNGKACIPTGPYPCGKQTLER
Chain of human factor Xa (P00742 235-488 limits assumed): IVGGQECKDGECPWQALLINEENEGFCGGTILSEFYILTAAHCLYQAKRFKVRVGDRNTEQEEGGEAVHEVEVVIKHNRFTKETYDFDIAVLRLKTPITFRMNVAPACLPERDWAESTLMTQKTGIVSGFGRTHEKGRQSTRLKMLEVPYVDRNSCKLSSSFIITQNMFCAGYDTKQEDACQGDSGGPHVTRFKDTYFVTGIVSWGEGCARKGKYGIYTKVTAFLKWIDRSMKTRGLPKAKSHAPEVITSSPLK
Description: as §1
The effect of the Tridegin purified as in Example 6 was tested on factor Xa. 2 mM S2765 was incubated in 50 mM Tris HCl pH 8.3 and the reaction was started by adding human factor Xa. The assay was performed as in Example 11. […] This confirms that, not only is the transglutaminase inhibitor different from previously known inhibitors of factor Xa, but the methods exemplified to purify the transglutaminase inhibitor successfully remove the factor Xa inhibitors.

[1] = biological target: T1, human plasma factor XIIIa (Homo sapiens, UniProt P00488); experiment: production of ammonia from casein on ethylamine incorporation (glutamate dehydrogenase/NADH coupled); type: biochemical; settings: control 4.14
T1 construct: from tissue; host or cells: human plasma (defibrinogenated, not purified further)
T1 sequence (P00488 39-732 limits assumed): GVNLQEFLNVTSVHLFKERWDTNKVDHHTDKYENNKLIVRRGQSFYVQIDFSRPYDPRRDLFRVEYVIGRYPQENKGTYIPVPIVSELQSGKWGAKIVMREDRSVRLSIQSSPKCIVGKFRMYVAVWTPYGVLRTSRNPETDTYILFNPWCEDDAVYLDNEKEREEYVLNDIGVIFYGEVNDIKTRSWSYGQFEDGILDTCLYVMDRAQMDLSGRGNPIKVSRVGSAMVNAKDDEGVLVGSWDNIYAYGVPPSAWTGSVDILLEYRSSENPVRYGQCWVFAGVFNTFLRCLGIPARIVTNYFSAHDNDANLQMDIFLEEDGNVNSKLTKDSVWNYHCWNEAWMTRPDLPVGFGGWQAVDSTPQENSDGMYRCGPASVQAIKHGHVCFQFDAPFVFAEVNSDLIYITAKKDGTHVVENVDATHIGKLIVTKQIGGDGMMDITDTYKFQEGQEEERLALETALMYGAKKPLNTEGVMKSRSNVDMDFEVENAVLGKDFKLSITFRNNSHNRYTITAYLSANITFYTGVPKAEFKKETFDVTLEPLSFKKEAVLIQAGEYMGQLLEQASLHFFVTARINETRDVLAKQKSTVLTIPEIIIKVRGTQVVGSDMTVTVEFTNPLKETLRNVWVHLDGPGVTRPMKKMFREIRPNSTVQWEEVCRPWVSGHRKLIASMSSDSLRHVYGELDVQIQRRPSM
Description: The transglutaminase activity of human plasma factor XIIIa was measured spectrophotometrically by a modification of the method of Muszbek, Polgar and Fesus; "Kinetic determination of blood coagulation factor XIII in plasma." Clin Chem 31 (1985) pp. 35-40. This method measures the production of ammonia by linking it through the glutamate dehydrogenase reaction to NADH oxidation which can be monitored by the change in absorption at 340 nm. Factor XIII was activated by incubating defibrinated human plasma (2 ml) and 200 mM CaCl2 (0.1 ml) with 1000 unit/ml bovine thrombin (0.1 ml) at 37° C. After 15 min the reaction was stopped by the addition of 260 antithrombin units of hirudin. The reaction cuvette contained: 2.5 mM dithiothreitol (0.1 ml), 40 mg/ml dephosphorylated β-casein (0.05 ml), 70 mM ethylamine (0.1 ml), 12 mM sodium 2-ketoglutarate (0.1 ml), 4 mM NADH (0.1 ml), 1.2 mM ADP (0.1 ml), 40 unit/ml glutamate dehydrogenase (0.1 ml), 70 mM HEPES buffer pH7.5 (0.25 ml) and this was placed in a spectrophotometer at 20° C. All components were dissolved in 70 mM HEPES buffer pH 7.5 where possible. The reaction was started by the addition of the activated factor XIII (0.2 ml) and monitored at 340 nm. The assay was validated with the use of factor XIII-deficient plasma (Sigma).
Test samples were added in 0.1 ml of the HEPES buffer to the reaction cuvette. […]

factor XIIIa = experiment: clot solubility assay (fibrin clot in urea); type: biochemical, bovine; settings: iodoacetamide 100 μM, lowered absorbance = clot soluble in urea
Description: In a first experiment A, the proboscis, anterior and posterior salivary glands of a leech of the species Haementeria ghilianii were homogenised together in a Potter homogeniser in 10 mM Tris HCl, 0.85% w/v NaCl pH7.0 (1 ml), and centrifuged at 13000 rpm. The supernatant was assayed in a clot solubility assay similar to that of Tymiak, Tuttle, Kimball, Wang and Lee "A simple and rapid screen for inhibitors of factor XIIIa". J. Antibiotics 46 (1993) pp. 204-206. In a second experiment B, the proboscis, anterior and posterior salivary glands were dissected from a leech of the species Haementeria ghilianii and homogenised separately in 0.2 ml aliquots of the buffer. The effect was compared with extracts of the proboscis, anterior and posterior salivary glands from two leeches of the species Haementeria officinalis prepared in 0.2 ml buffer. The test samples (30 μl) were added to a solution of 10 mg/ml crude bovine fibrinogen which contains factor XIII (30 μl). The reaction was started by adding 6.25 units/ml bovine thrombin containing 9 mM CaCl2 (40 μl). A clot formed in 15 min when 8M urea (160 μl) was added and left in contact with the clot. After 30 min, the absorbance resulting from the clot's opalescence was read at 405 nm. Lowered absorbance indicates solubility of the clot resulting from inhibition of cross-linking. […] The numerical values quoted in the table are absorbance at 405 nm.

Compound: Hirudin
- inhibitory effect on thrombin (thrombin): 95%
- Rate of Reaction (thrombin; control 49.8): 2.63 mAbs/min

Compound: rTAP: recombinant tick anticoagulant peptide, a known inhibitor of factor Xa (YNRLCIKPRDWIDECDSNEGGERAYFRNGKGGCDSFWICPEDHTGADYYSSYRDCFNACI; ends and bridges not checked; cysteine pairing not given here; UniProt P17726 1-60, looked up)
- inhibition of factor Xa (human factor Xa): 89.9%
- Reaction Rate (human factor Xa; control 49.8): 5.53 mAbs/min

Compound: O=C(O)CN(CCOCCOCCN(CC(=O)O)CC(=O)O)CC(=O)O [EGTA]
- Change in absorbance ([1]; 77 mM in cuvette): 0.024 mAbs/min

Compound: NC(=O)CI [Iodoacetamide]
- absorbance at 405 nm, Experiment A (factor XIIIa; Tris buffer 0.74): 0.26
- absorbance at 405 nm, Experiment B (factor XIIIa; Tris buffer 0.83): 0.42
- Change in absorbance ([1]; 0.077 mM in cuvette): 0.356 mAbs/min
